# Data taken from ChEMBL document CHEMBL3393004, “Insights on the role of boron containing moieties in the design of new potent and efficient agonists targeting the β2 adrenoceptor” (Bioorg Med Chem Lett, 2015).
# How the values were obtained:
# [1] = target: Beta-2 adrenergic receptor (Cavia porcellus) (UniProt Q8K4Z4); assay: Agonist activity at adrenergic beta2 receptor in Hartley guinea pig tracheal ring assessed as bronchorelaxation activity against histamine-induced contraction relative to isoproterenol; details: Trachea
# Chain of Beta-2 adrenergic receptor (Cavia porcellus) (Q8K4Z4 whole entry, looked up): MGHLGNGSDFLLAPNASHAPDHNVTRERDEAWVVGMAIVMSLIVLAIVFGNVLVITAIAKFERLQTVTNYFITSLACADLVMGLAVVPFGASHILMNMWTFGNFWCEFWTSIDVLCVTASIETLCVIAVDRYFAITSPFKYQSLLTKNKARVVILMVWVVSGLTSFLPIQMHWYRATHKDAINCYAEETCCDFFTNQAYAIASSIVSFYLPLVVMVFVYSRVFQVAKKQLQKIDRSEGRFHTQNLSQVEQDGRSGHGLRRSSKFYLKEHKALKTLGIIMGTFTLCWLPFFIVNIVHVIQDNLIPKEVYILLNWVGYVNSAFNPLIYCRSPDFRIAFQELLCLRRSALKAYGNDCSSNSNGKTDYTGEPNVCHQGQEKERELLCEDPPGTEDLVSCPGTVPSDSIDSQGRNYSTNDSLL
# [2] = target: T1, Beta-2 adrenergic receptor (Cavia porcellus, UniProt Q8K4Z4); assay: Agonist activity at adrenergic beta2 receptor in Hartley guinea pig tracheal ring at basal tone assessed as bronchorelaxation activity
# T1 sequence (Q8K4Z4 whole entry): as the sequence (Q8K4Z4 whole entry, looked up) above
# [3] = target: T1, Beta-2 adrenergic receptor; assay: Agonist activity at adrenergic beta2 receptor in Hartley guinea pig tracheal ring assessed as bronchorelaxation activity against histamine-induced contraction; set-up: species or system Trachea
Efficacy [1] [%],Kd [2] [nM],EC50 [3] [nM],Kd [3] [nM],Structure (SMILES)
68,,,,CC(C)(C)NCC(O)c1ccc(O)c(CO)c1 (configuration not stated)
94,5.13,≤ 280,28.2,CC(C)C[B-]1(O)OCc2cc([C@@H](O)C[NH2+]C(C)(C)C)ccc2O1 (some centres not stated)
,25.1,,17.8,CC(C)NCC(O)c1ccc(O)c(O)c1 (configuration not stated) [ISOPROTERENOL]
